Source: patent US20230092163A1, “COMPOUNDS AND COMPOSITIONS FOR TREATING CONDITIONS ASSOCIATED WITH STING ACTIVITY” (IFM Due, Inc., priority 2019, published 2023)

Molecular target: STING (Homo sapiens, UniProt Q86WV6, G230A/H232R/R293Q/R71H)
Assay: STING reporter assay: THP1-Dual KO-IFNAR2 cells stimulated with 2′3′cGAMP, luciferase reporter activity
Type: cell-based
Settings: 15 μM 2′3′cGAMP, 24h, class symbols
Summary of the method: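 THP1-Dual KO-IFNAR2 cells (2×10E6 cells/mL) treated with compounds at 0.0017-100 μM, then stimulated with 2′3′cGAMP (15 μM final) delivered by Lipofectamine 2000; 24 h at 37° C. Supernatant luciferase read by QUANTI-Luc Plus luminescence; EC50 from dose-response.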

STING, sequence (Q86WV6 whole entry R71H/G230A/H232R/R293Q): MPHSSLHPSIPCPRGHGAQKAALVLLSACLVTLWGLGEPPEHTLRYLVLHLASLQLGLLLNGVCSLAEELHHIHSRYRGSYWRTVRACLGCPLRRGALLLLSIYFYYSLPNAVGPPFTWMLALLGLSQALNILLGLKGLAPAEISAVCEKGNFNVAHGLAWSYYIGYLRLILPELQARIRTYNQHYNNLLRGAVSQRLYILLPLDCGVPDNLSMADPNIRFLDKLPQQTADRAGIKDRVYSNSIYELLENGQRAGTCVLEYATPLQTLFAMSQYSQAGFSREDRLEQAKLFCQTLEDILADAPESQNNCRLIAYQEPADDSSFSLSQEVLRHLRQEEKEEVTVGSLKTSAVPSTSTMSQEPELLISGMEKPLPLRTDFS

Row | EC50 | SMILES
1 | 0.2 to 1 µM | FC(F)(F)c1c(Cl)ccc2nc(Nc3ccc4cc[nH]c4c3)ccc12 [Compound 553]
2 | 1 to 5 µM | FC(F)(F)c1ccc2ncc(Nc3ccc4cc[nH]c4c3)nc2c1 [Compound 555]
3 | 1 to 5 µM | Cc1cc(NC(=O)Nc2ccc(C(F)(F)F)cc2)cc2[nH]cc(C#N)c12 [Compound 533]
4 | 1 to 5 µM | COc1ccc2c(Cl)cc(Nc3ccc4cc[nH]c4c3)nc2c1 [Compound 588, 4-chloro-N-(1H-indol-6-yl)-7-methoxyquinolin-2-amine]
5 | 0.2 to 1 µM | Fc1cc2ccc(Nc3ccc4cc[nH]c4c3)nc2cc1C(F)(F)F [Compound 551]
6 | 5 to 100 µM | c1cc2ccc(Nc3ccc4c(n3)CCCC4)cc2[nH]1 [Compound 567, N-(1H-indol-6-yl)-5,6,7,8-tetrahydroquinolin-2-amine]
7 | 5 to 100 µM | O=C(Nc1ccc(C(F)(F)F)cc1)Nc1cc(N2CCCC(Cn3cncn3)C2)c2cc[nH]c2c1 (centres unmarked) [Compound 572]
8 | 1 to 5 µM | CCCCc1ccc(Nc2c(Nc3ccc4c(c3)CC=N4)c(=O)c2=O)cc1 [Compound 618]
9 | 1 to 5 µM | N#Cc1cc(Nc2ccc3ccc(C(F)(F)F)cc3n2)cc2[nH]ccc12 [Compound 384]
10 | 0.2 to 1 µM | COc1cc(NC(=O)Nc2ccc(C(F)(F)F)cc2)cc2[nH]ccc12 [Compound 504]
11 | 5 to 100 µM | CC(NC(=O)Nc1cnc2cc[nH]c2c1)c1cc(Cl)cc(C(F)(F)F)c1 (centres unmarked) [Compound 506]
12 | 1 to 5 µM | N#Cc1c[nH]c2cc(NC(=O)Nc3ccc(C(F)(F)F)cc3)cc(F)c12 [Compound 528]

The remaining lines, values behind:

Row | SMILES | EC50
13 | N#Cc1ccc(OC2CCC(NC(=O)Nc3ccc4cc[nH]c4c3)CC2)cc1 (centres unmarked) [Compound 195] | 1 to 5 µM
14 | O=C(Nc1ccc(N2CCC(F)(F)CC2)nc1)Nc1ccc2cc[nH]c2c1 [Compound 247] | 1 to 5 µM
15 | CCCCCCCCCCCCCCNC(=O)Nc1ccc2cc[nH]c2c1 [Compound 236] | 0.2 to 1 µM
16 | O=C(NCCc1c(F)cccc1Cl)Nc1ccc2cc[nH]c2c1 [Compound 209] | 1 to 5 µM
17 | O=C(Nc1ccc(C(F)(F)F)cc1)Nc1cc(-c2ccccc2)c2cc[nH]c2c1 [Compound 169] | 1 to 5 µM
18 | O=C(NCCN1CCC(Cc2ccccc2)CC1)Nc1ccc2cc[nH]c2c1 [Compound 174] | 5 to 100 µM
19 | O=C(Nc1ccc(C(F)(F)F)cc1)Nc1ccc2c(F)c[nH]c2c1 [Compound 242, 3-(3-fluoro-1H-indol-6-yl)-1-[4-(trifluoromethyl)phenyl]urea] | 0.2 to 1 µM
20 | N#Cc1c[nH]c2cc(NC(=O)Nc3ccc(C(F)(F)F)cc3)ccc12 [Compound 258, 3-(3-cyano-1H-indol-6-yl)-1-[4-(trifluoromethyl)phenyl]urea] | 0.2 to 1 µM
21 | O=C(NCCc1ccc(OC(F)(F)F)cc1)Nc1ccc2cc[nH]c2c1 [Compound 183] | 0.2 to 1 µM

Same assay, conditions: 15 μM 2′3′cGAMP, 24h, numeric bounds

Row | EC50 | SMILES
22 | > 30 µM | COc1ccc(Nc2ccc3cc[nH]c3c2)nc1F [Compound 601, N-(6-fluoro-5-methoxypyridin-2-yl)-1H-indol-6-amine]
23 | > 30 µM | Cc1nc(Nc2ccc3cc[nH]c3c2)ccc1Br [Compound 399, N-(5-bromo-6-methylpyridin-2-yl)-1H-indol-6-amine]
24 | > 30 µM | COC(=O)c1ccc(Nc2ccc3cc[nH]c3c2)nc1OC [Compound 597]
25 | > 30 µM | O=C(Nc1ccc2c(F)c[nH]c2c1)Nc1ccc(N2CC(F)(F)C2)cn1 [Compound 515]
26 | > 30 µM | c1cc2nccnc2c(Nc2ccc3cc[nH]c3c2)n1 [Compound 404, N-(1H-indol-6-yl)pyrido[3,4-b]pyrazin-5-amine]
27 | > 100 µM | CCCCC1CCC(NC(=O)Nc2ccc3[nH]c(Cl)cc3c2)CC1 (centres unmarked) [Compound 372]
28 | > 30 µM | FC(F)(F)c1ccc2cnc(Nc3ccc4cc[nH]c4c3)nc2c1 [Compound 432, N-(1H-indol-6-yl)-7-(trifluoromethyl)quinazol in-2-amine]
29 | > 30 µM | Cc1c(Nc2ccc3ccc(C(F)(F)F)cc3n2)ccc2cc[nH]c12 [Compound 557]
30 | > 30 µM | CC(N)c1ccnc(Nc2ccc3cc[nH]c3c2)c1 (centres unmarked) [Compound 430, N-(4-(1-aminoethyl)pyridin-2-yl)-1H-indol-6-amine]

The next lines start with the compound.

Row | SMILES | EC50
31 | O=C(Nc1ccc2cc[nH]c2c1)Nc1cnccn1 [Compound 220] | > 30 µM
32 | O=C(NCc1cnccn1)Nc1ccc2cc[nH]c2c1 [Compound 219] | > 30 µM
33 | Cc1c(NC(=O)Nc2ccc(C(F)(F)F)cc2)ccc2cc[nH]c12 [Compound 259] | > 30 µM
34 | CCc1ccc(NC(=O)Nc2ccc3c(NC(=O)Nc4ccc(CC)cc4)c[nH]c3c2)cc1 [Compound 261] | > 100 µM
35 | N#Cc1cc(F)cc(NC(=O)Nc2ccc3[nH]ccc3c2)c1 [Compound 307] | > 30 µM
36 | O=C(Nc1ccc2cc[nH]c2c1)Nc1ccccc1Cl [Compound 194] | > 30 µM
37 | CC[C@H](NC(=O)Nc1ccc2[nH]ccc2c1)c1ccccc1 [Compound 358] | > 30 µM
38 | CCc1ccccc1NC(=O)Nc1ccc2[nH]ccc2c1 [Compound 363, 1-(2-ethylphenyl)-3-(1H-indol-5-yl)urea] | > 30 µM
39 | O=C(NCc1ccc(Cl)c(C(F)(F)F)c1)Nc1ccc2[nH]ccc2c1 [Compound 320] | > 30 µM
40 | O=C(NCCC1CC1)Nc1ccc2[nH]ccc2c1 [Compound 330] | > 30 µM
41 | O=C(NCc1ccc(F)c(F)c1)Nc1ccc2[nH]ccc2c1 [Compound 336] | > 30 µM
42 | Cc1cc(NC(=O)Nc2ccc3[nH]ccc3c2)ccc1C#N [Compound 360] | > 30 µM
43 | O=C(NCc1ccc(OCC(F)(F)F)nc1)Nc1ccc2[nH]ccc2c1 [Compound 296] | > 30 µM
44 | CC(C)(C)OC(=O)N1CC(CCNC(=O)Nc2ccc3[nH]ccc3c2)C1 [Compound 316] | > 30 µM
45 | O=C(NCCN1CCC(Cc2ccccc2)CC1)Nc1ccc2[nH]ccc2c1 [Compound 294] | > 30 µM
46 | Cn1cc(-c2c[nH]c3ccc(NC(=O)Nc4ccc(C(F)(F)F)cc4)cc23)cn1 [Compound 366] | > 30 µM
47 | CCCCc1ccc(Nc2c(Nc3ccc4cc[nH]c4c3)c(=O)c2=O)cc1 [Compound 113] | > 14.8 µM
